{
  "source": "paper PMC10065276",
  "about": "“Enhanced therapeutic window for antimicrobial Pept-ins by investigating their structure-activity relationship” (PLOS ONE, 2023)",
  "key": {"HEK 293T cells": {"test_system": "HEK 293T cells", "test": "CellTiter Blue assay", "type": "cell-based, human", "conditions": "about 16 hours treatment, viability normalised to vehicle", "procedure": "HEK 293T cells (ATCC CRL-3216) were grown in DMEM medium, supplemented with 10% FBS, 1 mM sodium pyruvate, non-essential amino acids. 100 μL of 10 000 cells were grown in flat-bottom 96-well plates (Fischer Scientific) overnight until cells are attached to the plate. Peptides were dissolved with Mini-plasco Nacl 0.9% (B. Braun) to 2 mg/mL and diluted to indicated concentrations using cell culture medium. Cells were treated by adding 100 μL peptides to each well for about 16 hours. Cells lysed with 1% Triton X-100 was included as a positive control. The toxicity of the peptide treatments was evaluated using the CellTiter-Blue Cell Viability Assay according to the instructions of the manufacturer (Promega, USA). The metabolic activity of viable cells is measured by recording fluorescence intensity at 590 nm after excitation at 560 nm. Cell viability is determined by normalising the fluorescence intensity of peptide- or triton-treated cells to the vehicle-treated sample."}, "E. coli BL21": {"test_system": "E. coli BL21", "conditions": "BL21, 17 h", "method_in_brief": "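EUCAST broth microdilution in Mueller-Hinton medium; end-exponential culture diluted to 0.005 McF (~1.5x10^6 CFU/mL) before 1:1 mixing with two-fold peptide dilutions (0.75 to 100 μg/mL), triplicates.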"}, "[1]": {"test_system": "E. coli XL1-Red (ancestor strain)", "type": "cell-based", "conditions": "XL1-Red (ancestor strain, 17 h)", "procedure": "In a previous study, we generated a P2-resistant strain by subculturing the hypermutable E. coli XL1-Red, which has a 5 000-fold higher mutation rate than wildtype bacteria, at the sub-MIC concentration of P2 for 27 days. […] The MIC of a few categories of P2 variants were determined to investigate whether P2 antimicrobial activity can be restored against P2-resistant bacteria via structure modification. […] The amount of intracellularly accumulated P2_VFV in P2-resistant strains was much higher than P2 (Fig 5A), which was sufficient to induce cell death (FAM^+Draq7^+ cells) (Fig 5B). […] (Fig 5C).\n(§1) The peptide MIC was determined via the broth microdilution assay according to the EUCAST guideline, using 96-well polystyrene flat-bottom microtiter plates (BD Biosciences). Briefly, a single colony was inoculated in 5 mL Mueller-Hinton (MH) medium and incubated, while shaking at 37°C, to the end-exponential growth phase. The bacterial culture was subsequently diluted to 0.005 McFarland (McF) (~1.5x10^6 CFU/mL) with fresh MH medium. Two-fold serial peptide-dilutions were prepared in 50 μL MH medium resulting in a concentration range of 0.75 to 100 μg/mL (at least three wells for each concentration). […] The MIC was determined as the lowest peptide concentration without visible bacterial growth."}, "[2]": {"test_system": "E. coli ATCC clinical isolates", "test": "microbe, parasite or virus in culture", "type": "cell-based", "conditions": "S12 Table, each table row is one E. coli clinical isolate (34 isolates), highest concentration tested 32 μg/mL", "excerpt": "To address the emerging antibiotic resistance issue, it is not only required to develop active antibiotics against wildtype bacteria, but also against the clinically isolated multidrug-resistant strains. Therefore, we determined whether P2 variants with a 4-fold lower MICs (P2_A5F, V7Y (P2), P2_H12_GV, P2_H12_PEG) (S12 Table) will also show improved antimicrobial activity against these multidrug-resistant strains. Since a high net positive charge could carry inherent developability challenges, we further explored the therapeutic potential of P2 variants with reduced net charge (P2_4R_GV and P2_4R_L) (S12 Table) by determining their antimicrobial activity against these clinically isolated multidrug-resistant strains. The mode of action of these derivatives remains to be inducing protein aggregation in bacteria as shown by the formation of IBs stained by pFTAA after Pept-in treatment (P2, P2-4R-GV, P2_A5F, V7Y (P2), P2_H12_GV, P2_H12_PEG) (S6A Fig) and the presence of a large number of proteins with different molecular weights in purified IBs as shown by the Coomassie staining (S6B Fig), in contrast to the absence of pFTAA staining (S6A Fig) and the presence of only two faint protein bands (S6B Fig) for buffer and control peptide treated bacteria. For clinically isolated multidrug-resistant strains, in addition to the 34 clinical isolates of E. coli ATCC, we added 12 Acinetobacter baumannii (A. baumannii) isolates and 12 Klebsiella pneumoniae (K. pneumoniae) isolates to broaden the selection of the bacterial spectrum.\nas §1, with “medium.” for “medium. Two-fold serial peptide-dilutions were prepared in 50 μL MH medium resulting in a concentration range of 0.75 to 100 μg/mL (at least three wells for each concentration).”"}},
  "note": "“And” between values parts separate entries of the source, which are not always exact repeats. Equal values may be shown once. Read-outs that look alike come from different tables or passages of the source. Positions of bridges follow the written chain, without caps; N, C: chain ends. Residues, ends and D or L forms follow the SMILES beside them.",
  "data": [
    {"smiles": "CC(C)C[C@H](NC(=O)CNC(=O)[C@H](CCCNC(=N)N)NC(=O)[C@H](CC(C)C)NC(=O)[C@H](C)NC(=O)[C@H](CCCNC(=N)N)NC(=O)[C@@H](NC(=O)[C@H](CC(C)C)NC(=O)[C@H](C)NC(=O)[C@H](CC(C)C)NC(=O)CNC(=O)[C@H](CC(C)C)NC(=O)CNC(=O)[C@@H](N)CCCNC(=N)N)C(C)C)C(=O)NCC(=O)N[C@@H](CC(C)C)C(=O)N[C@@H](C)C(=O)N[C@@H](CC(C)C)C(=O)N[C@H](C(=O)N[C@@H](C)C(=O)N[C@@H](CCCNC(=N)N)C(=O)O)C(C)C", "note": "[Peptide P2_4R_L] (H-RGLGLALVRALRGLGLALVAR-OH)", "values": [
      {"measurement": "toxicity on HEK 293T cells", "setting": "HEK 293T cells", "value": "induced toxicity effects"}
    ]},
    {"smiles": "CC(C)C[C@H](NC(=O)CNC(=O)[C@H](CCCNC(=N)N)NC(=O)[C@@H](NC(=O)CNC(=O)[C@H](CCCNC(=N)N)NC(=O)[C@H](CCCNC(=N)N)NC(=O)[C@@H](NC(=O)[C@H](CC(C)C)NC(=O)[C@H](C)NC(=O)[C@H](CC(C)C)NC(=O)CNC(=O)[C@H](CC(C)C)NC(=O)CNC(=O)[C@@H](N)CCCNC(=N)N)C(C)C)C(C)C)C(=O)NCC(=O)N[C@@H](CC(C)C)C(=O)N[C@@H](C)C(=O)N[C@@H](CC(C)C)C(=O)N[C@H](C(=O)N[C@@H](CCCNC(=N)N)C(=O)N[C@@H](CCCNC(=N)N)C(=O)O)C(C)C", "note": "[Peptide P2_GV] (H-RGLGLALVRRGVRGLGLALVRR-OH)", "values": [
      {"measurement": "toxicity on HEK 293T cells", "setting": "HEK 293T cells", "value": "induced toxicity effects"}
    ]},
    {"smiles": "CC(C)C[C@@H]1NC(=O)CNC(=O)[C@H](CCCNC(=N)N)NC(=O)[C@H](C(C)C)NC(=O)[C@H](CCCNC(=N)N)NC(=O)[C@H](CCCNC(=N)N)NC(=O)[C@H](C(C)C)NC(=O)[C@H](CC(C)C)NC(=O)[C@H](C)NC(=O)[C@H](CC(C)C)NC(=O)CNC(=O)[C@H](CC(C)C)NC(=O)[C@@H](NC(=O)[C@@H](N)CCCNC(=N)N)CSSC[C@@H](C(=O)O)NC(=O)[C@H](CO)NC(=O)CNC(=O)[C@H](CCCNC(=N)N)NC(=O)[C@H](CCCNC(=N)N)NC(=O)[C@H](CC(C)C)NC(=O)[C@H](C)NC(=O)[C@H](CC(C)C)NC(=O)CNC1=O", "note": "[Peptide P2_H6] (H-RCLGLALVRRVRGLGLALRRGSC-OH; disulfide 2-23)", "values": [
      {"measurement": "BL21 MIC, SS bond", "setting": "E. coli BL21", "value": 6.25, "unit": "µg/mL"},
      {"measurement": "BL21 MIC, no SS bond", "setting": "E. coli BL21", "value": 12.5, "unit": "µg/mL"},
      {"measurement": "MIC, Ancestor", "setting": "[1]", "value": 3.13, "unit": "µg/mL"}
    ]},
    {"smiles": "CC(C)C[C@H](NC(=O)CNC(=O)[C@H](CCCNC(=N)N)NC(=O)[C@@H]1CSSC[C@H](NC(=O)[C@@H](NC(=O)[C@H](CC(C)C)NC(=O)[C@H](C)NC(=O)[C@H](CC(C)C)NC(=O)CNC(=O)[C@H](CC(C)C)NC(=O)CNC(=O)[C@@H](N)CCCNC(=N)N)C(C)C)C(=O)N[C@@H](CCCNC(=N)N)C(=O)N[C@@H](CCCNC(=N)N)C(=O)NCC(=O)N[C@@H](C(C)C)C(=O)N1)C(=O)NCC(=O)N[C@@H](CC(C)C)C(=O)N[C@@H](C)C(=O)N[C@@H](CC(C)C)C(=O)N[C@H](C(=O)N[C@@H](CCCNC(=N)N)C(=O)N[C@@H](CCCNC(=N)N)C(=O)O)C(C)C", "note": "[Peptide P2_H12_GV] (H-RGLGLALVCRRGVCRGLGLALVRR-OH; disulfide 9-14)", "values": [
      {"measurement": "BL21 MIC", "setting": "E. coli BL21", "value": 3.13, "unit": "µg/mL"},
      {"measurement": "BL21 MIC, SS bond", "setting": "E. coli BL21", "value": 3.13, "unit": "µg/mL"},
      {"measurement": "BL21 MIC, no SS bond", "setting": "E. coli BL21", "value": 6.25, "unit": "µg/mL"},
      {"measurement": "MIC, Ancestor", "setting": "[1]", "value": 3.13, "unit": "µg/mL"}
    ]},
    {"smiles": "CC(C)C[C@H](NC(=O)CNC(=O)[C@H](CCCNC(=N)N)NC(=O)[C@@H]1CCCN1C(=O)[C@H](CCCNC(=N)N)NC(=O)[C@H](CCCNC(=N)N)NC(=O)[C@@H](NC(=O)[C@H](CC(C)C)NC(=O)[C@H](C)NC(=O)[C@H](CC(C)C)NC(=O)CNC(=O)[C@H](CC(C)C)NC(=O)CNC(=O)[C@@H](NC(=O)[C@H](Cc1ccccc1)NC(=O)[C@@H](NC(=O)[C@@H](N)CCCNC(=N)N)C(C)C)C(C)C)C(C)C)C(=O)NCC(=O)N[C@@H](CC(C)C)C(=O)N[C@@H](C)C(=O)N[C@@H](CC(C)C)C(=O)N[C@H](C(=O)N[C@@H](CCCNC(=N)N)C(=O)N[C@@H](CCCNC(=N)N)C(=O)O)C(C)C", "note": "[Peptide P2_VFV] (H-RVFVGLGLALVRRPRGLGLALVRR-OH)", "values": [
      {"measurement": "toxicity on HEK 293T cells", "setting": "HEK 293T cells", "value": "higher toxicity at 400 μg/mL and 200 μg/mL than P2"}
    ]},
    {"smiles": "CC(C)C[C@H](NC(=O)CNC(=O)[C@H](CCCNC(=N)N)NC(=O)[C@@H]1CCCN1C(=O)[C@H](CCCNC(=N)N)NC(=O)[C@H](C)NC(=O)[C@@H](NC(=O)[C@H](CC(C)C)NC(=O)[C@H](C)NC(=O)[C@H](CC(C)C)NC(=O)CNC(=O)[C@H](CC(C)C)NC(=O)CNC(=O)[C@@H](N)CCCNC(=N)N)C(C)C)C(=O)NCC(=O)N[C@@H](CC(C)C)C(=O)N[C@@H](C)C(=O)N[C@@H](CC(C)C)C(=O)N[C@H](C(=O)N[C@@H](CCCNC(=N)N)C(=O)N[C@@H](C)C(=O)O)C(C)C", "note": "[R9A, R21A] (H-RGLGLALVARPRGLGLALVRA-OH)", "values": [
      {"measurement": "BL21 MIC", "setting": "E. coli BL21", "value": ">100.00", "unit": "µg/mL"}
    ]},
    {"smiles": "NC[C@H]1O[C@H](O[C@H]2[C@H](O)[C@@H](O[C@H]3O[C@H](CO)[C@@H](O)[C@H](N)[C@H]3O)[C@H](N)C[C@@H]2N)[C@H](N)C[C@@H]1O", "note": "[Tobramycin]", "values": [
      {"measurement": "MIC", "setting": "[2]; Escherichia coli, read-out: MIC", "value": 1, "unit": "µg/mL"},
      {"measurement": "MIC", "setting": "[2]", "value": "0.5 µg/mL and >1 µg/mL"}
    ]},
    {"smiles": "CC(C)C[C@H](NC(=O)CNC(=O)[C@H](CCCNC(=N)N)NC(=O)[C@@H]1CCCN1C(=O)[C@H](CCCNC(=N)N)NC(=O)[C@H](CCCNC(=N)N)NC(=O)[C@H](CO)NC(=O)[C@H](CC(C)C)NC(=O)[C@H](C)NC(=O)[C@H](CC(C)C)NC(=O)CNC(=O)[C@H](CC(C)C)NC(=O)CNC(=O)[C@@H](N)CCCNC(=N)N)C(=O)NCC(=O)N[C@@H](CC(C)C)C(=O)N[C@@H](C)C(=O)N[C@@H](CC(C)C)C(=O)N[C@@H](CO)C(=O)N[C@@H](CCCNC(=N)N)C(=O)N[C@@H](CCCNC(=N)N)C(=O)O", "note": "[V7S (P2)] (H-RGLGLALSRRPRGLGLALSRR-OH)", "values": [
      {"measurement": "BL21 MIC", "setting": "E. coli BL21", "value": 100.00, "unit": "µg/mL"}
    ]},
    {"smiles": "CC(C)C[C@H](NC(=O)CNC(=O)[C@H](CCCNC(=N)N)NC(=O)[C@@H]1CCCN1C(=O)[C@H](CCCNC(=N)N)NC(=O)[C@H](CCCNC(=N)N)NC(=O)[C@@H](NC(=O)[C@H](CC(C)C)NC(=O)[C@H](C)NC(=O)[C@H](CC(C)C)NC(=O)CNC(=O)[C@H](CC(C)C)NC(=O)CNC(=O)[C@@H](N)CCCNC(=N)N)[C@@H](C)O)C(=O)NCC(=O)N[C@@H](CC(C)C)C(=O)N[C@@H](C)C(=O)N[C@@H](CC(C)C)C(=O)N[C@H](C(=O)N[C@@H](CCCNC(=N)N)C(=O)N[C@@H](CCCNC(=N)N)C(=O)O)[C@@H](C)O", "note": "[V7T (P2)] (H-RGLGLALTRRPRGLGLALTRR-OH)", "values": [
      {"measurement": "BL21 MIC", "setting": "E. coli BL21", "value": 50.00, "unit": "µg/mL"}
    ]}
  ]
}
